We go through 2 compounds from patent US11603386B2, “Insect, tick, and mite repellent derived from Xenorhabdus budapestensis” (Wisconsin Alumni Research Foundation, priority 2017, dated 2023).

This test concerns Aedes aegypti. The test can be described thus: Repellent screening assay (in vitro membrane feeding, Hemotek feeder, treated cloth). The test is classed as in vivo. The settings on record: for RD90: concentration producing 90% reduction in feeding rate, 30 min exposure. An excerpt: FIG. 1 is a photograph of the equipment used for the repellent screening assay. The apparatus includes a temperature-controlled feeder unit which includes a collagen casing covered by conventional cheese cloth. The collagen mimics the surface of human and is in contact with a heating element (not seen in FIG. 1) whose temperature is controlled by the temperature controller. The collagen pad is saturated with a solution that mimics human blood. The compound whose repellency is to be tested is applied to the cheese cloth, which is then affixed to the collagen pad. In the main panel in FIG. 1, the feeder unit is shown in its operational position, on top of a container in which are mosquitos (or any other arthropod) that is to be repelled. […] In practice, a known amount of putative repellent is applied to the cheese cloth. Unfed mosquitos, for example, are within the mosquito container. The feeder unit is then placed on top of the mosquito container for a pre-determined amount of time. The mosquitos are then sacrificed and examined to determine how many mosquitos fed (i.e., were not repelled) and how many mosquitos were still unfed after the test (i.e., were repelled). In this fashion, very reliable data can be generated regarding the effectiveness of any putative repellent composition. See Katritzky, A. R., et al. (2008) Proc. Nat. Acad. Sci. (US), 105:7359-7364 and Katritzky, A. R., et al. (2010) Journal of Med. Entomol., 47:924-938.
Unfed mosquitos are then used as test subjects. After the time course of each experiment is completed, the mosquitos are sacrificed and examined to determine how many mosquitos have fed (and thus were not repelled) versus how many mosquitos remain unfed (and thus were repelled). Fed versus unfed mosquitos can be separated by simple visual examination. Fed mosquites have an engorged, distended appearance. Representative images depicting the appearance of fed vs unfed mosquitoes resulting from the repellent screening assays is shown in FIG. 7. Images clearly show engorged abdomens and food red dye when mosquitoes were exposed to water only as negative repellent controls (FIG. 7, panel A).
A colony of the Aedes aegypti Liverpool strain was maintained at the University of Wisconsin according to standard procedures reported previously (Paskewitz et al., 1999; Kajla et al., 2010, Christensen et al., 1984). Anopheles gambiae and Culex pipiens (Iowa strain) were reared according to established protocols (Aliota et al., 2016) in a 100 square feet walk-in environmental chamber maintained at 26.5±0.5° C. and 80±5% relative humidity. For egg production, adult female mosquitoes were offered defibrinated rabbit blood (HemoStat Laboratories, Dixon, Calif., USA) via a Hemotek-brand membrane feeding system (Discovery Workshops, Accrington, UK) once a week. Adult mosquitoes were maintained on a constant exposure to 10% sucrose on cotton balls and larvae were fed Tetramin®-brand fish food. For repellent assays, nulliparous, mated, twenty 7-10 days old adult female mosquitoes were separated in screened pint-size paper containers (Neptune Paper Products, Fort Lee, N.J., USA). Mosquitoes were starved for 12-16 hours before the repellent assay. Mosquitoes were exposed to repellent compounds for 30 min at room temperature (incandescent light, 25-26° C.) between 10:00 am and 4:00 pm (see below for repellent assay set-up).
A Hemotek-brand feeding system was used to keep the feeding solution at a constant temperature set at 37° C. […]

As for `CCN(CC)C(=O)c1cccc(C)c1` [DEET, N,N-diethyl-3-methylbenzamide], the “RE90 (relative efficacy)” value came out at 1 and the RD90 was 0.188 Percent concentration (v/v). Besides, the “Feeding (engorgement / red dye in abdomen)” value (1%, positive control, FIG. 7 panel B) is reported as “no feeding occurred”.
Take `CCC(C)OC(=O)N1CCCCC1CCO` (centres unmarked) [Picaridin]: the “RE90 (relative efficacy)” value is 0.37 and the RD90 is 0.498 Percent concentration (v/v).
